Test results reported in patent US6787564B2, “Optically active clausenamides, process of the preparation thereof, pharmaceutical composition containing the same and their medical use” (Institute of Materia Medica, Chinese Academy of Medical …, priority 2002, dated 2004).

Tests used:
[1] = system: A β 25-35 treated rats; assay: Morris water maze, A β 25-35 induced impairment of memory; type: in vivo; conditions: for initial heading angle on the 3th day (in words): (−),(+) clausenamide 8 and 40 mg.kg^−1, piracetam 400 mg·kg^−1; for initial heading angle on the 3th day (in words) / latency for finding the platform, 3th to 5th day: vs A β group; for latency for finding the platform, 3th to 5th day: (−),(+) clausenamide 8 and 40 mg·kg^−1, piracetam 400 mg.kg^−1
Excerpt: Pathological features of Alzheimer's disease (AD) include extensive neuronal loss and the presence of numerous neurofibrillary tangles and senile plaques in the brain. The senile plaques contain amyloid fibrils derived from a 39-43 amino acids peptide referred to as β-amyloid or A β which can produce neurotoxicity. A β 25-35 poccesses the similar neurotoxicity and ability of self-aggregation as A β 1-42. Administrated aggregated A β 25-35 into rat's lateral cerebral ventricle induced memory impairment in Morris water maze.
With increasing of training days, the initial heading angle became small. On the 3th day, the initial heading angle of A β group was larger than control. […] (see Tab.3)
There are four strategies for finding platform in Morris water maze: random, circle, taxis and line. In the beginning of training the search strategies for finding target is mainly circle and random, with the increasing of training, the percentage of the two strategies declined gradually, Beginning from the 3th day, declining speed in control and (−) clausenamide group was faster than A β,(+) clausenamide and piracetam groups.

[2] = system: dentate gyrus of hippocampus; assay: induction of LTP in hippocampal of rat (population spike amplitude); type: in vivo, SD rats; conditions: I.C.V.; means ± SD
Excerpt: Adult male SD rats were anesthetized to maintain a surgical level. A stainless steel cannula-recording electrode was placed in DG (dentate gyrus) of hippocampus using a stereotaxic instrument. The combination of cannula-recording electrode was constructed by insulating the outside of the cannula, except at the tip and top. In the top noninsulated area, a stainless steel wire was wrapped around the cannula and connected to the amplifier via an amphenol connector. The four pairs optically active clausenamides shown in table 9 was delivered by I.C.V. Responses were evoked via direct stimulation of the performant path (PP) using a stainless steel bipolar stimulating electrode. Constant current stimulation provided by a stimulator was delivered to the stimulating electrode through a Stimulus Isolation Unit.
The stimulating electrode was adjusted until a characteristic EPSP was observed under constant current. The evoked responses were amplified on a series alternating current preamplifier, using a microcomputer, and then stored for off-line analysis using DataWave software. The current intensity that elicited a 50% maximal response in each animal was determined and used for all subsequent stimulation. To measure treatment effects, responses were evoked once every 30 sec throughout the entire experiment, and population spike amplitude(PSA) were calculated.

[3] = system: dentate gyrus granule cells; assay: basal synaptic transmission / LTP in dentate gyrus of hippocampus in anesthetized rats (population spike amplitude); type: in vivo; conditions: icv
Excerpt: Drugs or vehicle injection were delivered via cannula in the lateral cerebral ventricle at final concentration of 2×10^−6 mol/L. The population spike (PS) amplitude was employed as an indication of the level of excitation of the granular cell population in the dentate gyrus. To obtain this measurement, an evoked response was generated in the dentate gyrus granule cell layer by stimulating the pp at low freguency (0.033 Hz) with. single square wave pulses of 0.15 ms duration The LTP formation must accord the following creteria: The PS amplitude increased is over 30% and this high PS amplitude can persist for 40 min.

[4] = system: rats; assay: mossy fiber sprouting in fascia dentata and hippocampal CA3 region; type: in vivo; conditions: 8 and 40 mg·kg^−1 orally daily for 10 days; adult rat
Excerpt: 2. […] This is morphological basis for levoclausenamide to incnease synaptic transmission (see FIGS. 1 and 2).

[5] = system: β-AP (25-35)-treated rats; assay: one trial passive avoidance of β-AP (25-35)-treated rats; type: in vivo
[6] = system: BDNF; assay: BDNF protein expression in cortical neurons and hippocampal pyramide cells; type: in vivo, rats; conditions: 8, 40 mg·kg^−1 orally daily for 10 days
[7] = system: calcineurin; assay: calcineurin activity in the cortical and hippocampal tissue; conditions: without HFS; Nimodipine 2 nmol; mean ± S.D., n = 5; control 7.8 ± 0.6
Excerpt: The rats were anaesthetized with urethane carbonate. The recording and stimulating electrodes were made from Teflon coated stainless steel wires. The bipolar stimulating electrode was sterotaxically placed in the entorhinal cortex to stimulate the perforant path, and the evoked potential was extracellular recorded from the dentate gyrus granule cell layer of ipsilateral. The population spike (PS) is served as an indication of granule cell's excitation. Long term potentiation (LTP) was induced by a 200 Hz high frequency stimulation 5×single square wave pulses of 0.2 ms duration. The drug or vehicle (DMSO) were injected into lateral cerebral ventricle in a 5 μl volume over a 5 min period via a Hamilton syringe.

[8] = system: calpain; assay: calpain activity in the cortical and hippocampal tissue; type: in vivo, rats; conditions: without HFS, Nimodipine 2 nmol, mean ± S.D., n = 5; for calpain activity, Cortical tissue: control 1.5 ± 0.2; for calpain activity, Hippocampal tissue: control 1.7 ± 0.5
Excerpt: (§1) The rats were anaesthetized with urethane carbonate.

[9] = system: mGlu receptor; assay: effect of mGlu antagonist on LTP in hippocampal DG in vivo; parameters: species or system rats
Excerpt: as §1
3. Glutamate, the most abundant excitatory neurotransmitter in the CNS, released from presynaptic site and activated a variety of postsynaptic receptor, and then potentiated synaptic transmission. mGlu R (metabotropic glutamate receptor) indirectly regulates signaling and activats various second messenger cascades.

[10] = system: animals with anisodine-induced memory impairment; assay: memory impairment induced by anisodine in water maze test; type: in vivo; conditions: anisodine + drug 500 mg/kg
Excerpt: (§2) This invention used one trial avoidance task—step-down and step-through tests and water maze to compare the improving memorial effects of (±), (−) clausenamide. The drugs were given orally once to animals before experiment in step-down and step-through tests. The water maze test lasted for 5 days in succession. The results were expressed as latency and errors number.

[11] = system: animals; assay: nootropic action overall: step-down, step-through and water maze tests; type: in vivo; conditions: oral; Tab.4 to Tab.7
Protocol: This invention used one trial avoidance task—step-down and step-through tests and water maze to compare the improving memorial effects of (±), (−) clausenamide.
The drugs were given orally once to animals before experiment in step-down and step-through tests. The water maze test lasted for 5 days in succession. The results were expressed as latency and errors number.
The effective dose of piracetam was 500 mg.kg^−1.

[12] = system: animals; assay: memory in water maze test; type: in vivo; conditions: 500 mg/kg
Excerpt: as §2

[13] = system: animals with anisodine-induced memory impairment; assay: step-through test, memory impairment induced by anisodine; type: in vivo; conditions: 500 mg/kg oral once
Excerpt: as §2

[14] = system: animals with anisodine-induced memory impairment; assay: step-down test, memory impairment induced by anisodine; type: in vivo; conditions: 500 mg/kg oral once
Excerpt: as §2

[15] = β-AP-treated + drug 8 mg/kg, n = 9
[16] = β-AP-treated + drug 40 mg/kg, n = 9
[17] = β-AP-treated + drug 400 mg/kg, n = 8

Compound: (+) clausenamide [reference compound]
- initial heading angle on the 3th day (in words) [1]: showed no improving effects
- latency for finding the platform, 3th to 5th day [1]: showed no effect
- initial heading angle, training day 1 ([1]; A β 25-35 + drug at 8 mg/kg): 99.4 ± 31.7
- initial heading angle, training day 2 ([1]; A β 25-35 + drug at 8 mg/kg): 93.5 ± 29.6
- initial heading angle, training day 3 ([1]; A β 25-35 + drug at 8 mg/kg): 82.1 ± 26.7
- initial heading angle, training day 4 ([1]; A β 25-35 + drug at 8 mg/kg): 70.2 ± 21.5
- initial heading angle, training day 5 ([1]; A β 25-35 + drug at 8 mg/kg): 59.2 ± 18.3
- initial heading angle, training day 1 ([1]; A β 25-35 + drug at 40 mg/kg): 112.4 ± 32.8
- initial heading angle, training day 2 ([1]; A β 25-35 + drug at 40 mg/kg): 102.5 ± 28.7
- initial heading angle, training day 3 ([1]; A β 25-35 + drug at 40 mg/kg): 84.2 ± 22.5
- initial heading angle, training day 4 ([1]; A β 25-35 + drug at 40 mg/kg): 83.1 ± 26.5
- initial heading angle, training day 5 ([1]; A β 25-35 + drug at 40 mg/kg): 65.4 ± 20.8
- PSA (%), 15 min [2]: 90.6 ± 0.3%
- PSA (%), 30 min [2]: 110.1 ± 13.1%
- PSA (%), 60 min [2]: 106.4 ± 4.1%
- PS % at 15′, in comparison with control (vehicle) group ([3]; 2×10^−6 mol/L): −2.7%
- PS % at 30′, in comparison with before drug ([3]; 2×10^−6 mol/L): −5.9%
- PS % at 30′, in comparison with control (vehicle) group ([3]; 2×10^−6 mol/L): −12.0%
- PS % at 45′, in comparison with before drug ([3]; 2×10^−6 mol/L): −12.9%
- PS % at 45′, in comparison with control (vehicle) group ([3]; 2×10^−6 mol/L): −20.0%
- PS % at 60′, in comparison with before drug ([3]; 2×10^−6 mol/L): −14.9%
- PS % at 60′, in comparison with control (vehicle) group ([3]; 2×10^−6 mol/L): −23.2%
- PS amplitude 30′ after drug ([3]; 2×10^−6 mol/L, control 108 ± 7): 95 ± 9
- PS amplitude 45′ after drug ([3]; 2×10^−6 mol/L, control 110 ± 10): 88 ± 15
- PS amplitude 60′ after drug ([3]; 2×10^−6 mol/L, control 112 ± 7): 86 ± 18
- PS amplitude 15′ after drug ([3]; final concentration 2×10^−6 mol/L, control 110 ± 9): 107 ± 8
- mossy fiber sprouting in the fascia dentate and stratum lucidum [4]: no significant effect
- Number of error, Acquisition [5, 15]: 0.8 ± 0.38
- Number of error, Training [5, 15]: 3.3 ± 0.42
- Number of error, Acquisition [5, 16]: 1.1 ± 0.19
- Number of error, Training [5, 16]: 3.9 ± 2.3
- BDNF protein expression in the cortical neurons and pyramide cells in the hippocampus [6]: slightly increasing effect only at a dose of 40 mg·kg^−1

Compound: COCCOC(=O)C1=C(C)NC(C)=C(C(=O)OC(C)C)C1c1cccc([N+](=O)[O-])c1 (stereo not shown) [Nimodipine]
- calcineurin activity, Hippocampal tissue [7]: 7.7 ± 0.8 (μmol Pi)/hr/μ g protein
- calpain activity, Cortical tissue [8]: 1.7 ± 0.3 ΔA595nm/hr/mg protein
- calpain activity, Hippocampal tissue [8]: 1.8 ± 0.5 ΔA595nm/hr/mg protein

Compound: CC(N)(C(=O)O)c1ccc(C(=O)O)cc1 (racemic) [(±) MCPG, (±)-α-methyl-4-carboxyphenylglycine]
- induction of LTP induced by HFS and levoclausenamide ([9]; 10 μmol, icv): inhibited the induction of LTP
- established LTP ([9]; given 15 min after HFS or levoclausenamide): reversed the established LTP

Compound: NC(=O)CN1CCCC1=O [Piracetam, 2-oxo-1 pyrolidine acetamide]
- initial heading angle on the 3th day (in words) [1]: showed no improving effects
- latency for finding the platform, 3th to 5th day [1]: showed no effect
- initial heading angle, training day 1 ([1]; A β 25-35 + drug at 400 mg/kg): 92.5 ± 28.9
- initial heading angle, training day 2 ([1]; A β 25-35 + drug at 400 mg/kg): 87.3 ± 24.2
- initial heading angle, training day 3 ([1]; A β 25-35 + drug at 400 mg/kg): 74.6 ± 23.7
- initial heading angle, training day 4 ([1]; A β 25-35 + drug at 400 mg/kg): 62.5 ± 19.6
- initial heading angle, training day 5 ([1]; A β 25-35 + drug at 400 mg/kg): 44.5 ± 14.3
- Errors number [10]: 23.5 ± 25.0
- effective dose of piracetam (comparator) [11]: 500 mg/kg
- Number of error, Acquisition [5, 17]: 1.6 ± 0.26
- Number of error, Training [5, 17]: 4.1 ± 1.14
- Lalencies reaching platform, 3rd day ([12]; 0.9% Nacl 25.8 ± 18.4): 18.6 ± 9.9 s
- Lalencies reaching platform, 4th day ([12]; 0.9% Nacl 26.1 ± 38.4): 16.7 ± 16.3 s
- Lalencies reaching platform, Second day ([12]; N = 10, X ± S.D., 0.9% Nacl 32.4 ± 29.2): 32.2 ± 22.6 s
- Latencies, Step-through ([13]; 0.9% Nacl + anisodine 24.4 ± 59): 107 ± 110 s
- Error number, Step-through ([13]; N = 10, X ± SD, 0.9% Nacl + anisodine 12.7 ± 4.6): 4.1 ± 3.2
- Error number, Step-down ([14]; 0.9% Nacl + anisodine 0.9 ± 1.0): 0.7 ± 0.5
- Latencies, Step-down ([14]; 0.9% Nacl + anisodine 184 ± 105): 180 ± 110 s

Compound: NC(CCCP(=O)(O)O)C(=O)O (stereo not shown) [AP5]
- calcineurin activity, Hippocampal tissue [7]: 8.1 ± 0.7 (μmol Pi)/hr/μ g protein
- calpain activity, Cortical tissue [8]: 1.6 ± 0.4 ΔA595nm/hr/mg protein
- calpain activity, Hippocampal tissue [8]: 1.6 ± 0.6 ΔA595nm/hr/mg protein
